Data set [1] concerns the target T1, Gamma-aminobutyric acid receptor subunit alpha-2 (Homo sapiens, UniProt P47869).
T1 sequence (P47869 whole entry): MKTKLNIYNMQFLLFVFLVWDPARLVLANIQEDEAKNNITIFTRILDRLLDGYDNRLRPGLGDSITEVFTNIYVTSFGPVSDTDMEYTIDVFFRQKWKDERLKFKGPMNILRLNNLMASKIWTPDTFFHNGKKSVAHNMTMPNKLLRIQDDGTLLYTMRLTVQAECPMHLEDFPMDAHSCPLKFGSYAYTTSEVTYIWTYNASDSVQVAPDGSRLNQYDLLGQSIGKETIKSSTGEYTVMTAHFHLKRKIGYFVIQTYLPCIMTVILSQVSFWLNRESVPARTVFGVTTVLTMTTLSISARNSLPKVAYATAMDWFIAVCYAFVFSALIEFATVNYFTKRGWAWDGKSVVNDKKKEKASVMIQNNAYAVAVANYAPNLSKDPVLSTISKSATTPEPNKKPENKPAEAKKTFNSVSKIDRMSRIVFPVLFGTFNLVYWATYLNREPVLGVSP
The experiment in a line: Displacement of [3H]flumazenil from GABAA receptor subunit alpha-2 expressed in CHO cells. The format is cell-based. Background: In a radioligand displacement assay an active substance lowers the binding of a labelled ligand.

Data set [2] has as its target T2, Gamma-aminobutyric acid receptor subunit alpha-2 (Homo sapiens) (UniProt P47869).
T2 sequence (whole entry): T1 sequence (P47869 whole entry)
The experiment in a line: Agonist activity at recombinant GABAA receptor subunit alpha-2 expressed in CHO cells at 3 uM by sensitive fluorometric read-out assay relative to midazolam. The format is functional, cell-based.

In data set [3] the target is T3, Gamma-aminobutyric acid receptor subunit alpha-1 (Homo sapiens) (UniProt P14867).
T3 sequence (whole entry): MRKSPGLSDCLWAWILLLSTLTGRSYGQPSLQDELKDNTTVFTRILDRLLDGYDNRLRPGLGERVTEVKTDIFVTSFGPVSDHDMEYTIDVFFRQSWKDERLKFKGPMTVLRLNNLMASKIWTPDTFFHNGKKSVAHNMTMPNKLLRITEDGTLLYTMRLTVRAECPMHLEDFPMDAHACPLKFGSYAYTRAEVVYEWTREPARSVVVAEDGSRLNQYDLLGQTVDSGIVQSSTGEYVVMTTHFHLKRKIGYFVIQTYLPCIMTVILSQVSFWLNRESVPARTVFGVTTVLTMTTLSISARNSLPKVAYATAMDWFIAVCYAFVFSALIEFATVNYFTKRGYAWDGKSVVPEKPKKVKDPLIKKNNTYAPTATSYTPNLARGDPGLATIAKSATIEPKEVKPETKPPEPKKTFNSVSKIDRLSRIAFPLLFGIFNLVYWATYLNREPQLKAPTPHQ
Description: Agonist activity at recombinant GABAA receptor subunit alpha-1 expressed in CHO cells at 3 uM by sensitive fluorometric read-out assay relative to midazolam. The format is functional, cell-based.

Data set [4] deals with T4, Gamma-aminobutyric acid receptor subunit alpha-1 (Homo sapiens, UniProt P14867).
T4 sequence (P14867 whole entry): T3 sequence (whole entry)
Description: Displacement of [3H]flumazenil from GABAA receptor subunit alpha-1 expressed in CHO cells. The format is cell-based.

Data set [5] has as its target T2, Gamma-aminobutyric acid receptor subunit alpha-2 (Homo sapiens). The experiment in a line: Agonist activity at recombinant GABAA receptor subunit alpha-2 expressed in CHO cells at 1 uM by sensitive fluorometric read-out assay relative to midazolam. Format: functional, cell-based.
For data set [6], the target named is T3, Gamma-aminobutyric acid receptor subunit alpha-1 (Homo sapiens). Description: Agonist activity at recombinant GABAA receptor subunit alpha-1 expressed in CHO cells at 1 uM by sensitive fluorometric read-out assay relative to midazolam. Format: functional, cell-based.
Data set [7] can be described thus: Intrinsic clearance in rat liver microsomes at 5 uM after 60 mins. The format is ADME, Microsome.

Drawing on ChEMBL document CHEMBL1681636, “Exploring subtype selectivity and metabolic stability of a novel series of ligands for the benzodiazepine binding site of the GABAA receptor” (Bioorg Med Chem Lett, 2011), this text covers IC50, Efficacy and microsomal CLint for 17 compounds.

pIC50: −log10 of the molar value. The source made the active and inactive calls. The rule behind the calls is not given here.

Regarding `Clc1ccc(-n2nc3c4c(ncc3c2OCC2CC2)CCCC4)cc1`, the results for the negative-log IC50 (pIC50) in data set [1] and in data set [4] were 6.73 and 7.03, respectively. Besides, the Efficacy in data set [2] is 64%; in data set [3], 18%.

For `Clc1ccc(-n2nc3c(cnc4ccccc43)c2OCc2ccccc2Cl)cc1`, the values for the pIC50 in data set [1] and in data set [4] were 6.58 and 7.19, respectively. The Efficacy in data set [2] is 22%; in data set [3] it was 13%.

Consider `Clc1ccc(-n2nc3c4c(ncc3c2OCc2cccc(Cl)c2)CCCC4)cc1`, for which the Efficacy in data set [2] was determined as 50%; in data set [3], 38%.

On to `Clc1ccc(-n2nc3c(cnc4ccc(-n5ccnc5)cc43)c2OCC2CC2)cc1`, for which the pIC50 (in general, −log10 of the IC50, conventionally taken in molar units) in data set [1] is 5.67; in data set [4] it was 6.87. Besides, the Efficacy in data set [2] stood at 35%; in data set [3], 80%.

As to `Clc1ccc(-n2nc3c(cnc4ccccc43)c2OCC2CC2)cc1`, the values for the pIC50 in data set [1] and in data set [4] were 6.33 and 7.13, respectively. Also, the Efficacy in data set [2] came out at 36%; in data set [3], 37%.

As for `Fc1ccccc1-n1nc2c(cnc3ccccc32)c1OCc1ccccc1Cl`, the negative-log IC50 (pIC50) in data set [1] was 8.70; in data set [4], 9.00. For the same compound, the Efficacy in data set [2] is 17%; in data set [3], -8%.

As to `CC1(C)CCc2ncc3c(OCc4ccccc4Cl)n(-c4ccc(Cl)cc4)nc3c2C1`, the pIC50 is 6.67 in data set [1] and 7.17 in data set [4]. Besides, the Efficacy in data set [2] turned out to be 23%; in data set [3], 4%.

Turning to `Clc1ccc(-n2nc3c4c(ncc3c2OCc2ccccc2Cl)CCOC4)cc1`, the pIC50 in data set [1] is 6.34. For the same compound, the figures for the Efficacy in data set [2] and in data set [3] were 32% and 4%, respectively.

For `Clc1ccc(COc2c3cnc4c(c3nn2-c2ccc(Cl)cc2)CCCC4)cc1`, the pIC50 in data set [1] was 6.75; in data set [4], 6.80. For the same compound, the Efficacy in data set [2] amounted to 42%; in data set [3] it was 20%.

Regarding `FC(F)(F)c1ccccc1COc1c2cnc3c(c2nn1-c1ccc(Cl)cc1)CCCC3`, the Efficacy in data set [2] came out at 94%; in data set [3], 84%.

Turning to `O=C1C2C=Nc3ccccc3C2=NN1c1ccc(Cl)cc1` (centres undefined) [CGS-9896], the pIC50 is 8.40 in data set [1] and 9.00 in data set [4]. Also, the Efficacy turned out to be 47% in data set [5] and 38% in data set [6].

Regarding `Clc1ccc(-n2nc3c4c(ncc3c2OCc2ccccc2Cl)CCCCC4)cc1`, the values for the negative logarithm of the IC50 (pIC50) in data set [1] and in data set [4] were 6.22 and 6.62, respectively. In addition, the Efficacy in data set [2] came to 96%; in data set [3], 114%.

Turning to `Fc1ccc(COc2c3cnc4c(c3nn2-c2ccc(Cl)cc2)CCCC4)cc1`, the pIC50 was 7.24 in data set [1] and 7.30 in data set [4]. Also, the Efficacy in data set [2] was determined as 41%; in data set [3], 24%.

On to `Clc1ccccc1COc1c2cnc3ccccc3c2nn1-c1ccc2c(c1)OCO2`, for which the pIC50 in data set [1] is 6.81; in data set [4], 7.30. Besides, the values for the Efficacy in data set [2] and in data set [3] were 19% and -15%, respectively.

`Fc1ccccc1COc1c2cnc3c(c2nn1-c1ccc(Cl)cc1)CCCC3`: the pIC50 in data set [1] is 6.81; in data set [4], 7.19. The Efficacy in data set [2] is 83%; in data set [3], 31%.

Turning to `Clc1ccc(-n2nc3c4c(ncc3c2OCc2ccccc2Cl)CCCC4)cc1`, in data set [7], the microsomal CLint (in general, a measure of how fast metabolising enzymes remove a compound, apart from limits set by blood flow) at 5 µM turned out to be 128 µL/min/mg. Moreover, the pIC50 in data set [1] was 6.57; in data set [4], 7.34. For the same compound, the Efficacy in data set [2] is 50%; in data set [3], 25%.

With `Clc1ccc(-n2nc3c4c(ncc3c2Oc2ccccc2Cl)CCCC4)cc1`, the pIC50 in data set [1] and in data set [4] was < 5.52 in each case. Also, the Efficacy entry in data set [2] and in data set [3] was “inactive” each time.
